BigSolDB 2.1

## O=P(CCCO)(CCCO)CCCO
In acetone, 293.15 K
  solubility (mole fraction): 0.0007
In acetone, 298.14 K
  solubility (mole fraction): 0.00101
In acetone, 303.16 K
  solubility (mole fraction): 0.00151
In acetone, 308.21 K
  solubility (mole fraction): 0.00217
In acetone, 313.17 K
  solubility (mole fraction): 0.00303
In acetone, 318.12 K
  solubility (mole fraction): 0.00425
In acetone, 323.15 K
  solubility (mole fraction): 0.00593
In ethanol, 298.12 K
  solubility (mole fraction): 0.0226
In ethanol, 303.22 K
  solubility (mole fraction): 0.0286
In ethanol, 308.17 K
  solubility (mole fraction): 0.036
In ethanol, 313.1 K
  solubility (mole fraction): 0.0456
In ethanol, 318.08 K
  solubility (mole fraction): 0.0569
In ethanol, 323.11 K
  solubility (mole fraction): 0.0718
In ethanol, 328.16 K
  solubility (mole fraction): 0.0919
In isobutanol, 293.11 K
  solubility (mole fraction): 0.0122
In isobutanol, 298.21 K
  solubility (mole fraction): 0.0154
In isobutanol, 303.13 K
  solubility (mole fraction): 0.019
In isobutanol, 308.15 K
  solubility (mole fraction): 0.0234
In isobutanol, 313.17 K
  solubility (mole fraction): 0.0291
In isobutanol, 318.14 K
  solubility (mole fraction): 0.0357
In isobutanol, 323.23 K
  solubility (mole fraction): 0.0436
In isopropanol, 298.13 K
  solubility (mole fraction): 0.0155
In isopropanol, 303.21 K
  solubility (mole fraction): 0.0187
In isopropanol, 308.15 K
  solubility (mole fraction): 0.0224
In isopropanol, 313.17 K
  solubility (mole fraction): 0.027
In isopropanol, 318.19 K
  solubility (mole fraction): 0.0321
In isopropanol, 323.11 K
  solubility (mole fraction): 0.0386
In isopropanol, 328.18 K
  solubility (mole fraction): 0.0465
In methanol, 298.11 K
  solubility (mole fraction): 0.0527
In methanol, 303.15 K
  solubility (mole fraction): 0.0702
In methanol, 308.18 K
  solubility (mole fraction): 0.091
In methanol, 313.1 K
  solubility (mole fraction): 0.115
In methanol, 318.22 K
  solubility (mole fraction): 0.144
In methanol, 323.14 K
  solubility (mole fraction): 0.176
In methanol, 328.11 K
  solubility (mole fraction): 0.21
In n-butanol, 298.13 K
  solubility (mole fraction): 0.011
In n-butanol, 303.21 K
  solubility (mole fraction): 0.0138
In n-butanol, 308.11 K
  solubility (mole fraction): 0.0163
In n-butanol, 313.17 K
  solubility (mole fraction): 0.02
In n-butanol, 318.15 K
  solubility (mole fraction): 0.0252
In n-butanol, 323.1 K
  solubility (mole fraction): 0.0302
In n-butanol, 328.23 K
  solubility (mole fraction): 0.0369
In n-propanol, 298.16 K
  solubility (mole fraction): 0.0369
In n-propanol, 303.11 K
  solubility (mole fraction): 0.0438
In n-propanol, 308.13 K
  solubility (mole fraction): 0.0517
In n-propanol, 313.12 K
  solubility (mole fraction): 0.062
In n-propanol, 318.16 K
  solubility (mole fraction): 0.0731
In n-propanol, 323.21 K
  solubility (mole fraction): 0.0866
In n-propanol, 328.18 K
  solubility (mole fraction): 0.102
